In patent US20150299143A1, “SUBSTITUTED TRIAZOLE AND IMIDAZOLE COMPOUNDS” (HOFFMANN-LA ROCHE INC., priority 2012, published 2015):

How the values were obtained:
β 2c/2i (trypsin-like) = assay: Cell-Based Proteasome subunit activity/selectivity assay, β2c/2i, substrate (KQL)2Rh110; conditions: Ramos cells; substrate (KQL)2Rh110 (β2c/2i); highest concentration tested 20 μM
Source text: (§1) Cell-Based Proteasome Activity/Selectivity Assay
(§2) The Cell-Based Proteasome subunit activity/selectivity assay was a panel of 5 fluorogenic assays that independently measured the activity of β5c or β 5i (chymotrypsin-like activity), β 2c/2i (trypsin-like), and β 1c or β 1i (caspase-like) protease activity associated with the proteasome complex in cultured cells. Specifically, the following substrates were used for respective subunit activities: β 1i (PAL)2Rh110, β 1c: (LLE)2 Rh110, β 2c/2i: (KQL)2Rh110, β 5c: (WLA)2Rh110, β 5i: (ANW)2Rh110. The following procedure was followed:
(§3) Added 0.5 μl of 100× 4-fold serial diluted test compounds or DMSO to each well. Highest concentration of compound tested was 20 μM, thus compound serial dilution started from […]. Incubated for 30 minutes at 37° C. Then equilibrated at room temperature for 15 minutes. […] Shaked for one minute @ 700 rpm. Incubated for 120 min at room temperature. Then read the plates with an Envision multilabel plate reader (PerkinElmer) with 500 nm excitation/519 nm emission.

[1] = target: T1, β 5i (chymotrypsin-like activity) (Homo sapiens, UniProt P20618+P28062); assay: Cell-Based Proteasome subunit activity/selectivity assay, β5i, substrate (ANW)2Rh110; conditions: Ramos cells; substrate (ANW)2Rh110 (β5i); highest concentration tested 20 μM; read-out: Ic50:ramos:ac-(anw)2-r110
T1 construct: protease activity associated with the proteasome complex in cultured cells; endogenous in cells; host or cells: Ramos cells
Source text: as §1, §2, §3

β 1c (caspase-like) = target: T2, β 1c (caspase-like) (Homo sapiens, UniProt P28072+Q99436); assay: Cell-Based Proteasome subunit activity/selectivity assay, β1c, substrate (LLE)2Rh110; conditions: Ramos cells; substrate (LLE)2Rh110 (β1c); highest concentration tested 20 μM; read-out: Ic50:ramos:rh110-(lle)2
T2 construct: protease activity associated with the proteasome complex in cultured cells; endogenous in cells; host or cells: Ramos cells
Source text: as §1, §2, §3

[2] = target: T3, β5c (chymotrypsin-like activity) (Homo sapiens, UniProt P20618+P28074); assay: Cell-Based Proteasome subunit activity/selectivity assay, β5c, substrate (WLA)2Rh110; conditions: Ramos cells; substrate (WLA)2Rh110 (β5c); highest concentration tested 20 μM; read-out: Ic50:ramos:rh110-(wla)2
T3 construct: protease activity associated with the proteasome complex in cultured cells; endogenous in cells; host or cells: Ramos cells
Source text: as §1, §2, §3

β 1i (caspase-like) = target: T4, β 1i (caspase-like) (Homo sapiens, UniProt P28065+P40306); assay: Cell-Based Proteasome subunit activity/selectivity assay, β1i, substrate (PAL)2Rh110; conditions: Ramos cells; substrate (PAL)2Rh110 (β1i); highest concentration tested 20 μM; read-out: Ic50:ramos:rh110-(pal)2
T4 construct: protease activity associated with the proteasome complex in cultured cells; endogenous in cells; host or cells: Ramos cells
Source text: as §1, §2, §3

| Structure (SMILES) | IC50 (β 2c/2i (trypsin-like)) [µM] | IC50 [1] [nM] | IC50 (β 1c (caspase-like)) [µM] | IC50 [2] [µM] | IC50 (β 1i (caspase-like)) [µM] |
| --- | --- | --- | --- | --- | --- |
| CCc1ccc(C(C#N)NC(=O)c2cn(CCNC(=O)c3cc(Cl)cc(C)n3)nn2)cc1 (centres unmarked) [Example 21, 4-Chloro-6-methyl-pyridine-2-carboxylic acid [2-(4-{[cyano-(4-ethyl-phenyl)-methyl]-carbamoyl}-[1,2,3]triazol-1-yl)-ethyl]-amide] | ≥ 20 | 2880 | ≥ 20 | ≥ 20 | – |
| COc1ccc(C(=O)NCCn2cc(C(=O)NC(C#N)c3ccc4sccc4c3)nn2)c(OC)c1OC (centres unmarked) [Example 48, 1-[2-(2,3,4-Trimethoxy-benzoylamino)-ethyl]-1H-[1,2,3]triazole-4-carboxylic acid (benzo[b]thiophen-5-yl-cyano-methyl)-amide] | ≥ 20 | 201 | ≥ 20 | 16.3 | – |
| CCc1ccc(C(C#N)NC(=O)c2cn(CCNC(=O)CC3(O)Cc4ccccc4C3)nn2)cc1 (centres unmarked) [Example 22, 1-{2-[2-(2-Hydroxy-indan-2-yl)-acetylamino]-ethyl}-1H-[1,2,3]triazole-4-carboxylic acid [cyano-(4-ethyl-phenyl)-methyl]-amide] | ≥ 20 | 9950 | ≥ 20 | ≥ 20 | ≥ 20 |
| CCc1ccc(C(C#N)NC(=O)c2nc(CCNC(=O)c3ccc(C(F)(F)F)cc3OC)n[nH]2)cc1 (centres unmarked) [Example 90, 5-[2-(2-Methoxy-4-trifluoromethyl-benzoylamino)-ethyl]-2H-[1,2,4]triazole-3-carboxylic acid [cyano-(4-ethyl-phenyl)-methyl]-amide] | ≥ 20 | 14 | ≥ 20 | ≥ 20 | ≥ 20 |
| CCc1ccc(C(C#N)NC(=O)c2cn(CCNC(=O)c3ccc(OC(F)(F)F)cc3OC)nn2)cc1 (centres unmarked) [Example 11, 1-[2-(2-Methoxy-4-trifluoromethoxy-benzoylamino)-ethyl]-1H-[1,2,3]triazole-4-carboxylic acid [cyano-(4-ethyl-phenyl)-methyl]-amide] | ≥ 20 | 106 | ≥ 20 | 9.98 | ≥ 20 |
| CCc1ccc(C(C#N)NC(=O)c2cn(CCNC(=O)c3cccc(-c4ccccc4)n3)nn2)cc1 (centres unmarked) [Example 15, 6-Phenyl-pyridine-2-carboxylic acid [2-(4-{[cyano-(4-ethyl-phenyl)-methyl]-carbamoyl}-[1,2,3]triazol-1-yl)-ethyl]-amide] | ≥ 20 | 1500 | 19.9 | 7.76 | ≥ 20 |
| COc1ccc(C(C#N)NC(=O)c2cn(CCNC(=O)c3ccc(OC)c(OC)c3OC)nn2)cn1 (centres unmarked) [Example 65, 1-[2-(2,3,4-Trimethoxy-benzoylamino)-ethyl]-1H-[1,2,3]triazole-4-carboxylic acid [cyano-(6-methoxy-pyridin-3-yl)-methyl]-amide] | ≥ 20 | 947 | 17.8 | ≥ 20 | ≥ 20 |
| COc1ccc(C(=O)NCCn2cc(C(=O)NC(C#N)c3ccc(C4CC4)cc3)nn2)c(OC)c1OC (centres unmarked) [Example 58, 1-[2-(2,3,4-Trimethoxy-benzoylamino)-ethyl]-1H-[1,2,3]triazole-4-carboxylic acid [cyano-(4-cyclopropyl-phenyl)-methyl]-amide] | ≥ 20 | 159 | – | ≥ 20 | ≥ 20 |
| COC(=O)[C@H](Cc1cc2ccccc2[nH]1)NC(=O)c1cn(CCNC(=O)c2ccc(C(F)(F)F)cc2F)nn1 [Example 84, (S)-2-({1-[2-(2-Fluoro-4-trifluoromethyl-benzoylamino)-ethyl]-1H-[1,2,3]triazole-4-carbonyl}-amino)-3-(1H-indol-2-yl)-propionic acid methyl ester] | ≥ 20 | 162 | ≥ 20 | ≥ 20 | ≥ 20 |
| COc1ccc(C(=O)NCCn2cc(C(=O)NC(C#N)c3ccc(C(C)C)cc3)nn2)c(OC)c1OC (centres unmarked) [Example 61, 1-[2-(2,3,4-Trimethoxy-benzoylamino)-ethyl]-1H-[1,2,3]triazole-4-carboxylic acid [cyano-(4-isopropyl-phenyl)-methyl]-amide] | ≥ 20 | 1310 | 17.1 | ≥ 20 | ≥ 20 |
| CCc1ccc(C(C#N)NC(=O)c2cn(CCNC(=O)c3cc(C(F)(F)F)ccc3OC)nn2)cc1 (centres unmarked) [Example 39, 1-[2-(2-Methoxy-5-trifluoromethyl-benzoylamino)-ethyl]-1H-[1,2,3]triazole-4-carboxylic acid [cyano-(4-ethyl-phenyl)-methyl]-amide] | ≥ 20 | 517 | – | ≥ 20 | ≥ 20 |
| N#CC(NC(=O)c1cn(CCNC(=O)c2cc(Cl)ccc2Cl)nn1)c1ccc(C(F)(F)F)cc1 (centres unmarked) [Example 69, 1-[2-(2,5-Dichloro-benzoylamino)-ethyl]-1H-[1,2,3]triazole-4-carboxylic acid [cyano-(4-trifluoromethyl-phenyl)-methyl]-amide] | ≥ 20 | 3790 | – | ≥ 20 | ≥ 20 |
| CCc1ccc(C(C#N)NC(=O)c2cn(CCNC(=O)c3cccc4c3OCCO4)nn2)cc1 (centres unmarked) [Example 18, 1-{2-[(2,3-Dihydro-benzo[1,4]dioxine-5-carbonyl)-amino]-ethyl}-1H-[1,2,3]triazole-4-carboxylic acid [cyano-(4-ethyl-phenyl)-methyl]-amide] | ≥ 20 | 482 | ≥ 20 | ≥ 20 | – |
| CCc1ccc(C(C#N)NC(=O)c2cn(CCNC(=S)c3ccc(OC)c(OC)c3OC)nn2)cc1 (centres unmarked) [Example 86, 1-[2-(2,3,4-Trimethoxy-thiobenzoylamino)-ethyl]-1H-[1,2,3]triazole-4-carboxylic acid [cyano-(4-ethyl-phenyl)-methyl]-amide] | ≥ 20 | 274 | – | 16.3 | ≥ 20 |
| CCc1ccc(C(C#N)NC(=O)c2cn(CCNC(=O)c3ccc(Cl)cc3OC)nn2)cc1 (centres unmarked) [Example 20, 1-[2-(4-Chloro-2-methoxy-benzoylamino)-ethyl]-1H-[1,2,3]triazole-4-carboxylic acid [cyano-(4-ethyl-phenyl)-methyl]-amide] | ≥ 20 | 196 | ≥ 20 | ≥ 20 | – |
| CCc1ccc(C(C#N)NC(=O)c2cn(CCNC(=O)c3cccc(OC)c3OC)nn2)cc1 (centres unmarked) [Example 16, 1-[2-(2,3-Dimethoxy-benzoylamino)-ethyl]-1H-[1,2,3]triazole-4-carboxylic acid [cyano-(4-ethyl-phenyl)-methyl]-amide] | ≥ 20 | 1120 | ≥ 20 | ≥ 20 | – |
| CCc1ccc(C(C#N)NC(=O)c2cn(CCNC(=O)c3ccc(OC)nn3)nn2)cc1 (centres unmarked) [Example 40, 6-Methoxy-pyridazine-3-carboxylic acid [2-(4-{[cyano-(4-ethyl-phenyl)-methyl]-carbamoyl}-[1,2,3]triazol-1-yl)-ethyl]-amide] | ≥ 20 | 4060 | – | ≥ 20 | ≥ 20 |
| COc1ccc(C(=O)NCCn2cc(C(=O)NC(C#N)c3ccc4ccccc4c3)nn2)c(OC)c1OC (centres unmarked) [Example 49, 1-[2-(2,3,4-Trimethoxy-benzoylamino)-ethyl]-1H-[1,2,3]triazole-4-carboxylic acid (cyano-naphthalen-2-yl-methyl)-amide] | ≥ 20 | 338 | 19 | 12.5 | – |
| CCc1ccc(C(C#N)NC(=O)c2cn(CCNC(=O)c3ccc(OC)c(OC)c3OC)nn2)cc1 (single isomer, unassigned) [Example 51] | – | 604 | – | – | ≥ 20 |
| CCc1ccc(C(C#N)NC(=O)c2cn(CCNC(=O)c3ccc(SC)cc3OC)nn2)cc1 (centres unmarked) [Example 19, 1-[2-(2-Methoxy-4-methylsulfanyl-benzoylamino)-ethyl]-1H-[1,2,3]triazole-4-carboxylic acid [cyano-(4-ethyl-phenyl)-methyl]-amide] | ≥ 20 | 111 | ≥ 20 | 12 | – |
| CCc1ccc(C(C#N)NC(=O)c2cn(CCNC(=O)c3ncccc3OC)nn2)cc1 (centres unmarked) [Example 17, 3-Methoxy-pyridine-2-carboxylic acid [2-(4-{[cyano-(4-ethyl-phenyl)-methyl]-carbamoyl}-[1,2,3]triazol-1-yl)-ethyl]-amide] | ≥ 20 | 9930 | ≥ 20 | ≥ 20 | – |
